Measurements published in ChEMBL document CHEMBL3763138, “Synthesis and bioactivity of novel triazole incorporated benzothiazinone derivatives as antitubercular and antioxidant agent” (Bioorg Med Chem Lett, 2016).
Values after ≈ are worked out from the molar mass of the structure shown.

Columns and labels:
[1] = system: Mycobacterium tuberculosis; assay: Antitubercular activity against Mycobacterium tuberculosis H37Ra ATCC 25177 by XTT Reduction Menadione Assay; format: functional, organism-based
[2] = Antioxidant activity assessed as DPPH radical scavenging activity by spectrophotometric assay; format: physicochemical
[3] = system: Mycobacterium tuberculosis; assay: Antitubercular activity against Mycobacterium tuberculosis H37Ra ATCC 25177 at 30 ug/ml by XTT Reduction Menadione Assay; format: functional
[4] = (§1) Cytotoxicity against human HeLa cells assessed as growth inhibition after 72 hrs by MTT assay; format: cell-based; conditions: HeLa cells
HeLa [5] = assay: as §1; format: cell-based; conditions: hela, 72 h
[6] = system: Mycobacterium tuberculosis; assay: Antitubercular activity against Mycobacterium tuberculosis H37Ra ATCC 25177 at 3 ug/ml by XTT Reduction Menadione Assay; format: functional
HeLa [7] = assay: Antiproliferative activity against human HeLa cells at 10 ug/ml after 72 hrs by MTT assay; format: cell-based
[8] = system: Mycobacterium tuberculosis; assay: Antitubercular activity against Mycobacterium tuberculosis H37Ra ATCC 25177 at 10 ug/ml by XTT Reduction Menadione Assay; format: functional
HeLa [9] = assay: Antiproliferative activity against human HeLa cells at 30 ug/ml after 72 hrs by MTT assay; format: cell-based
A549 [10] = assay: Antiproliferative activity against human A549 cells at 3 ug/ml after 48 hrs by MTT assay; format: cell-based; conditions: a549, 48 h
HeLa [11] = assay: Antiproliferative activity against human HeLa cells at 3 ug/ml after 72 hrs by MTT assay; format: cell-based
A549 [12] = assay: Antiproliferative activity against human A549 cells at 30 ug/ml after 48 hrs by MTT assay; format: cell-based; conditions: a549, 48 h
A-431 [13] = assay: Antiproliferative activity against human A431 cells at 10 ug/ml after 48 hrs by MTT assay; format: cell-based; conditions: a-431, 48 h
A549 [14] = assay: Antiproliferative activity against human A549 cells at 10 ug/ml after 48 hrs by MTT assay; format: cell-based; conditions: a549, 48 h
A-431 [15] = assay: Antiproliferative activity against human A431 cells at 30 ug/ml after 48 hrs by MTT assay; format: cell-based; conditions: a-431, 48 h
[16] = Cytotoxicity against human A431 cells assessed as growth inhibition after 48 hrs by MTT assay; format: cell-based, A-431
[17] = (§2) Cytotoxicity against human A549 cells assessed as growth inhibition after 48 hrs by MTT assay; format: cell-based; conditions: A549 cells
A549 [18] = assay: as §2; format: cell-based; conditions: a549, 48 h
A-431 [19] = assay: Antiproliferative activity against human A431 cells at 3 ug/ml after 48 hrs by MTT assay; format: cell-based; conditions: a-431, 48 h
[20] = Selectivity index, ratio of GI50 for human HeLa cells to MIC for Mycobacterium tuberculosis H37Ra ATCC 25177; format: toxicity, cell-based; conditions: pooled result: one value given for 3 cell lines, strains, targets or settings, read-out: Selectivity Index
[21] = Selectivity index, ratio of GI50 for human HeLa cells to MIC for Mycobacterium bovis BCG ATCC 35743; format: toxicity, cell-based; conditions: pooled result: one value given for 3 cell lines, strains, targets or settings, read-out: Selectivity Index

Structure (SMILES)	IC50 [1] [µg/mL]	MIC [1] [µg/mL]	IC50 [2] [µg/mL]	inhibition at 30 µg/mL [3] [%]	GI50 at 72 h [4] [µg/mL]	GI50 (HeLa [5]) [µg/mL]	inhibition at 3 µg/mL [6] [%]	Activity (HeLa [7]) [%]	inhibition at 10 µg/mL [8] [%]	Activity (HeLa [9]) [%]	Activity (A549 [10]) [%]	Activity (HeLa [11]) [%]	Activity (A549 [12]) [%]	Activity (A-431 [13]) [%]	Activity (A549 [14]) [%]	Activity (A-431 [15]) [%]	GI50 at 48 h [16] [µg/mL]	GI50 at 48 h [17] [µg/mL]	MIC (A549 [18]) [µg/mL]	Activity (A-431 [19]) [%]	other results
O=C1CSc2ccccc2N1Cc1cn(Cc2cccc([N+](=O)[O-])c2)nn1	12.4 (≈ 32.4 µM)	> 30	34.12 (≈ 89.5 µM)	60.2	> 30	> 30	34.8	-3	48.9	20.1	-9.71	0	-11.78	16.5	0	15.6	> 30	> 30	> 30	13.9	–
Cc1cc(C(C)(C)C)c(O)c(C(C)(C)C)c1 [BUTYLATED HYDROXYTOLUENE]	–	–	16.47 (≈ 74.7 µM)	–	–	–	–	–	–	–	–	–	–	–	–	–	–	–	–	–	–
CC(=O)O[C@H]1C(=O)[C@@]2(C)[C@H]([C@H](OC(=O)c3ccccc3)[C@]3(O)C[C@H](OC(=O)[C@H](O)[C@@H](NC(=O)c4ccccc4)c4ccccc4)C(C)=C1C3(C)C)[C@]1(OC(C)=O)CO[C@@H]1C[C@@H]2O [PACLITAXEL]	–	–	–	–	0.14 (≈ 0.164 µM)	–	–	–	–	–	–	–	–	–	–	–	0.0023 (≈ 0.00269 µM)	< 0.0023	0.039 (≈ 0.0457 µM)	–	–
O=C1CSc2ccccc2N1Cc1cn(-c2ccc([N+](=O)[O-])cc2)nn1	> 30	> 30	44.29 (≈ 121 µM)	28.5	> 30	> 30	24.2	-0.9	0.3	35.8	33.22	13.3	38.71	0	24.73	0	> 30	> 30	> 30	0	–
O=C1CSc2ccccc2N1Cc1cn(Cc2ccccc2)nn1	9.11 (≈ 27.1 µM)	> 30	36.26 (≈ 108 µM)	82.2	> 30	> 30	-15.4	8.8	59.3	39.6	-7.85	0	25.91	-37.2	-9.82	-10.8	> 30	> 30	> 30	0	–
CO[C@H]1/C=C/O[C@@]2(C)Oc3c(C)c(O)c4c(O)c(c(/C=N/N5CCN(C)CC5)c(O)c4c3C2=O)NC(=O)/C(C)=C\C=C\[C@H](C)[C@H](O)[C@@H](C)[C@@H](O)[C@@H](C)[C@H](OC(C)=O)[C@@H]1C [RIFAMPIN]	–	0.043 (≈ 0.0523 µM)	–	–	–	–	–	–	–	–	–	–	–	–	–	–	–	–	–	–	selectivity ratio [20]: 2330; selectivity ratio [21]: 2440
O=C1CSc2ccccc2N1Cc1cn(Cc2ccc(Cl)cc2)nn1	2.67 (≈ 7.2 µM)	> 30	44.29 (≈ 119 µM)	65.8	> 30	> 30	52.1	29.6	75.3	45.1	3.6	41.9	51.91	40.9	4.35	61.5	27.3 (≈ 73.6 µM)	29.9 (≈ 80.7 µM)	> 30	35	–
O=C1CSc2ccccc2N1Cc1cn(Cc2ccc([N+](=O)[O-])cc2)nn1	9.2 (≈ 24.1 µM)	> 30	27.4 (≈ 71.8 µM)	70.6	> 30	> 30	9.8	53.2	52.9	55.5	0	36.5	8.43	12.9	17.56	44.7	> 30	> 30	> 30	10.8	selectivity ratio [20]: 1; selectivity ratio [21]: 1.02
O=C1CSc2ccccc2N1Cc1cn(Cc2cccc(Cl)c2)nn1	8.03 (≈ 21.7 µM)	27.3 (≈ 73.7 µM)	45.63 (≈ 123 µM)	94.2	> 30	> 30	8.6	43.4	66.6	45.7	6.38	52.3	19.04	-13.7	3.31	4.4	> 30	> 30	> 30	-6.3	selectivity ratio [20]: 1.1; selectivity ratio [21]: 1.05
NNC(=O)c1ccncc1 [ISONIAZID]	0.0025 (≈ 0.0182 µM)	0.075 (≈ 0.547 µM)	–	–	–	–	–	–	–	–	–	–	–	–	–	–	–	–	–	–	selectivity ratio [20]: 1330; selectivity ratio [21]: 2220
O=C1CSc2ccccc2N1Cc1cn(Cc2ccccc2Cl)nn1	> 30	> 30	16.35 (≈ 44.1 µM)	37.8	> 30	> 30	41.9	38.6	74.9	55.9	4.19	48.1	23.34	29.6	-8.41	31.4	> 30	> 30	> 30	15.4	–
O=C1CSc2ccccc2N1Cc1cn(-c2cccc([N+](=O)[O-])c2)nn1	> 30	> 30	47.11 (≈ 128 µM)	1.2	> 30	> 30	25.7	13.3	8.7	37.5	12.32	11.9	22.02	25.4	0.19	29.7	> 30	> 30	> 30	17.2	–
O=C1CSc2ccccc2N1Cc1cn(Cc2ccc(Br)cc2)nn1	> 30	> 30	14.14 (≈ 34 µM)	49.8	> 30	> 30	58	32.9	38.4	41.3	-5.96	40.4	44.78	4	-1.37	35.5	> 30	> 30	> 30	8.6	–
O=C1CSc2ccccc2N1Cc1cn(Cc2ccc(F)cc2)nn1	1.24 (≈ 3.5 µM)	29.2 (≈ 82.5 µM)	14.15 (≈ 39.9 µM)	91.3	28.6 (≈ 80.8 µM)	> 30	73.8	46.3	77.5	51.3	12.32	45.1	30.9	31.1	4.1	44.5	> 30	> 30	> 30	17.3	selectivity ratio [20]: 1.02; selectivity ratio [21]: 1.09
